We go through 24 compounds from patent US5773424A, “Treatment of toxoplasmosis” (priority 1994, dated 1998).

Molecules are shown by their SMILES.

Usually Ki stands for the equilibrium dissociation constant of an inhibitor or competing ligand from its target. For orientation: inhibition means the change of the read-out against control, counted positive when it falls.

For one assay, the target named is T. gondii adenosine kinase (Toxoplasma gondii, UniProt Q9TVW2). The assay is described as follows: biochemical.
T. gondii adenosine kinase, sequence (Q9TVW2 whole entry): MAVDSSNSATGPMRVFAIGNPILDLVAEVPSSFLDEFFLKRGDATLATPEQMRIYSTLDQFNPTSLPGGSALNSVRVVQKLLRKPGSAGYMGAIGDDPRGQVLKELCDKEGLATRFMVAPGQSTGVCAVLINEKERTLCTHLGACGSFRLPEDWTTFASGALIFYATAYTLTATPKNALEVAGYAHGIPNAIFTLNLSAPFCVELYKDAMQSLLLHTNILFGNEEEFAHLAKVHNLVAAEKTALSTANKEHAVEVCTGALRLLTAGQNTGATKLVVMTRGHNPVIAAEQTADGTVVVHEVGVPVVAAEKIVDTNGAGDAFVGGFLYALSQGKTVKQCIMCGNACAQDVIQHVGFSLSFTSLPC
Conditions: not given
The protocol: Preparation of cytosol extracts. For the structure activity relationships studies, approximately 5×10^8 T. gondii were suspended in 1.2 ml of 50 mM N-2-hydroxyethylpiperazine-N'-2-ethanesulfonic acid (HEPES)-Cl (pH 8.0)/1 mM dithiothreitol and homogenized for 30 seconds at setting 10, using a Brinnmann Instruments Polytron homogenizer fitted with a PTA 7K1 probe. The homogenate was then centrifuged at approximately 116,000 g for 1 hour at 5° and the supernatant (cytosol extract) collected and used as the enzyme source. Fresh cytosol extracts were prepared for each experiment.
Adenosine kinase assay. T. gondii adenosine kinase activity was measured by following the formation of [^14 C]AMP from [^14 C]adenosine and ATP. […] Therefore, the standard reaction mixture contained 50 mM HEPES-Cl (pH 8.0), 1 mM dithiothreitol, 5 μM [8-^14 C]adenosine (45 Ci/mol), 0.5 mM ATP, 0.5 mM MgCl2, 25 μM (+)-EHNA or 100 μM (±)-EHNA,10-30 μl of cytosol extract (approximately 3-10 μg of protein), and either 0, 0.1, 0.25, 0.5 or 1.0 mM of the compound to be tested, in a final volume of 150 μl.
Reactions were started by the addition of [8-^14 C]adenosine, incubated at 37° for 10 minutes and terminated by placing the reaction tubes in a boiling water bath for 2 minutes. Precipitated proteins were removed by centrifugation in a microcentrifuge (approximately 13,000 g) for 5 minutes, and a 15 μl aliquot of the resulting supernatant was mixed with 5 μl of a solution containing 10 mM each of AMP and adenosine. This mixture was then spotted on silica gel thin layer chromatography plates which were developed with a mixture of chloroform/methanol/acetic acid (16:3:1). […] The substrate and product spots (which accounted for all of the radioactivity on the plates) were identified by UV quenching, cut out, and the radioactivity quantitated by liquid scintillation counting in 20 ml of Scintilene, using a Packard 460 scintillation counter. […] Enzyme velocity was calculated by multiplying the fraction of AMP formed from adenosine times the amount of adenosine in the assay, and dividing by the incubation time.
Determination and significance of AppKi values. AppKi values were used to determine the relative degree of binding of compounds to adenosine kinase as compared to adenosine. AppKi values were estimated from Dixon plots of the data (1/.nu. versus [I]), using a computer program with least squares fitting according to the general principles of Cleland (Cleland, W W, The statistical analysis of enzyme kinetic data. Adv. Enzymol. 29:1-32, 1967). The program was written by Dr. Sungman Cha (Brown University, Providence, R.I.) and modified to fit IBM BASIC by Dr. Fardos N. M. Naguib. […] It should be noted, however, that the type of inhibition (i.e., competitive, noncompetitive, or uncompetitive) produced by the compounds was not determined, nor were the compounds evaluated as substrates for T. gondii adenosine kinase.
The compound `NNc1ncnc2c1ccn2[C@@H]1O[C@H](CO)[C@@H](O)[C@H]1O` [Compound 69, 6-Hydrazino-7-deazapurine riboside] had an inhibition constant Ki of 180 ± 10 µM.

The compound `Nc1nc(Cl)nc2c1ncn2[C@@H]1O[C@H](CO)[C@@H](O)[C@H]1O` [Compound 7] registered a Ki of 870 ± 50 µM.

As for `CSc1ncnc2c1nnn2[C@@H]1O[C@H](CO)[C@@H](O)[C@H]1O` [Compound 83, 8-Aza-6-methylmercaptopurine riboside], the affinity corresponds to a Ki of 130 ± 40 µM.

Consider `O=c1[nH]cnc2c([C@@H]3O[C@H](CO)[C@@H](O)[C@H]3O)n[nH]c12` [Compound 82, 8-Aza-9-deazainosine (formycin B)], for which the affinity corresponds to a Ki of 3100 µM.

For the compound `CCCCNc1ncnc2c1ncn2[C@@H]1O[C@H](CO)[C@@H](O)[C@H]1O` [Compound 32], the Ki amounted to 220 ± 90 µM.

With `Nc1ncnc2c1nnn2[C@@H]1O[C@H](CO)[C@@H](O)[C@H]1O` [Compound 57], the Ki was 23 ± 6 µM.

`OC[C@H]1O[C@@H](n2cnc3c(Nc4ccccc4)ncnc32)[C@H](O)[C@@H]1O` [Compound 43] registered an inhibition constant Ki of 88 ± 12 µM.

Consider `CCSc1ncnc2c1cnn2[C@@H]1O[C@H](CO)[C@@H](O)[C@H]1O` [Compound 76, 8-Aza-6-ethylmercapto-7-deazapurine riboside], for which the Ki stood at 210 ± 100 µM.

With `CC1(C)O[C@@H]2[C@H](O1)[C@@H](CO)O[C@H]2n1cnc2c(=S)[nH]cnc21` [Compound 122, 2',3'-O-Isopropylidene-6-mercaptopurine riboside], the affinity corresponds to a Ki of 3900 µM.

`CSc1ncnc2c1cnn2[C@@H]1O[C@H](CO)[C@@H](O)[C@H]1O` [Compound 79, 8-Aza-6-methylmercapto-7-deazapurine riboside] displayed an inhibition constant Ki of 140 ± 30 µM.

Take `Nc1ncnc2c1ncn2[C@@H]1O[C@H](C(=O)O)[C@@H](O)[C@H]1O` [Compound 99, adenosine 5'-Carboxylic acid (5'-Carboxyladenosine)]: the Ki was found to be 1100 µM.

In the case of `Cn1cnc2c(ncn2[C@@H]2O[C@H](CO)[C@@H](O)[C@H]2O)c1=N` [Compound 6], the Ki came out at 88 ± 28 µM.

`Nc1ncnc2c1ncn2[C@H]1O[C@H](CO)[C@@H](O)[C@H]1O` [Compound 3]: the Ki is 8400 µM.

As for `Nc1ncnc2c1ncn2[C@H]1CC[C@@H](CO)O1` [Compound 106, 2',3'-Dideoxyadenosine], the Ki was 5500 µM.

The same assay, now with this note: AppKi for inhibition of T. gondii adenosine kinase, 5 μM adenosine; ± range, at least two estimations.
In the case of `Nc1ncnc2c1ncn2[C@@H]1O[C@H](C(=O)NC2CC2)[C@@H](O)[C@H]1O` [Compound 104, 5'-N-(Cyclopropyl)carboxamidoadenosine], the Ki was 1100 µM.

On to `CNc1ncnc2c1ncn2[C@@H]1O[C@H](CO)[C@@H](O)[C@H]1O` [Compound 26], for which the Ki was 23 ± 1 µM.

As to `OC[C@H]1O[C@@H](n2cnc3cncnc32)[C@H](O)[C@@H]1O` [Compound 11], the Ki is 170 ± 20 µM.

In the case of `Nc1ncnc2c1ncn2[C@@H]1O[C@H](COS(=O)(=O)O)[C@@H](O)[C@H]1O` [Compound 97, 5'-Sufonyl adenosine (adenosine 5'-monosulfate)], the Ki was 210 ± 60 µM.

Consider `Nc1ncnc2c1ncn2[C@@H]1O[C@H](CI)[C@@H](O)[C@H]1O` [Compound 96, 5'-Iodo-5'-deoxyadenosine], for which the Ki was 230 ± 10 µM.

The assay is the same for the next values; noted with them: read-out: Inhibition of T. gondii adenosine kinase.
On to `O=c1[nH]c(=O)c2ncn([C@@H]3O[C@H](CO)[C@@H](O)[C@H]3O)c2[nH]1` [Compound 67], for which the inhibition at 1000 µM was less than 10%.

Regarding `Nc1nc2c(ncn2[C@@H]2O[C@H](CO)[C@@H](O)[C@H]2O)c(=O)[nH]1` [Compound 64], the inhibition at 1000 µM was less than 10%.

For `Nc1nc(Nc2ccccc2)nc2c1ncn2[C@@H]1O[C@H](CO)[C@@H](O)[C@H]1O` [Compound 9], the inhibition at 1000 µM is less than 10%.

For `CNc1ncnc2c1ncn2[C@H]1C[C@H](O)[C@@H](CO)O1` [Compound 117, N^6 -Methyl-2'-deoxyadenosine], the inhibition at 1000 µM was less than 10%.

With `OC[C@H]1O[C@@H](n2ncc3c(=S)[nH]cnc32)[C@H](O)[C@@H]1O` [Compound 78, 8-Aza-6-mercapto-7-deazapurine riboside], the inhibition at 1000 µM is less than 10%.
